According to PubChem BioAssay (NCI):
“And” between values parts separate entries of the source, which are not always exact repeats. Equal values may be shown once.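 Test compounds were applied to cells in 96-well plates for 48 hours at 5 doses. At the GI50, growth is halved. TGI marks complete inhibition of growth.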 Where a SMILES comes first, the peptide text is derived from it. [ ]: non-standard residue; d: D form. 2Nal = N[CH](Cc1ccc2ccccc2c1)C(=O)O

Assays:
Assay in all cases: NCI anticancer screen, dose series, 48 h
CAKI-1 renal = system: CAKI-1 renal
CCRF-CEM leukemia = system: CCRF-CEM leukemia
HOP-18 NSCLC = system: HOP-18 NSCLC
KM20L2 colon = system: KM20L2 colon
NCI-H522 lung = system: NCI-H522 lung
RXF 393 renal = system: RXF 393 renal
SN12C renal = system: SN12C renal
SNB-78 CNS = system: SNB-78 CNS
TK-10 renal = system: TK-10 renal
UACC-62 melanoma = system: UACC-62 melanoma
XF 498 CNS = system: XF 498 CNS
HT29 colon = system: HT29 colon

Row | SMILES | TGI (CAKI-1 renal) | TGI (CCRF-CEM leukemia) | TGI (HOP-18 NSCLC) [µM] | TGI (KM20L2 colon) [µM] | TGI (NCI-H522 lung) [µM] | TGI (RXF 393 renal) | TGI (SN12C renal) [µM] | TGI (SNB-78 CNS) [µM] | TGI (TK-10 renal) [µM] | TGI (UACC-62 melanoma) | TGI (XF 498 CNS) [µM] | TGI (HT29 colon) [µM] | GI50 (CCRF-CEM leukemia) [µM] | GI50 (HT29 colon) [µM] | GI50 (RXF 393 renal) [µM] | GI50 (SN12C renal) [µM] | GI50 (UACC-62 melanoma) [µM]
1 | CC(=O)Nc1ccc(/C=c2\sc3nnc(/C=C/c4ccccc4)n3c2=O)cc1 | > 50 µM | > 50 µM | > 50 | > 50 | > 50 | > 50 µM | > 50 | > 50 | > 50 | > 50 µM | > 50 | – | – | – | – | – | –
2 | CC1CC2C3CC(F)C4=CC(=O)C=CC4(C)C3(F)C(O)CC2(C)C1(O)C(=O)CO (stereo unspecified) | > 100 µM | > 100 µM | – | > 100 | > 100 | > 100 µM | – | > 100 | > 100 | > 100 µM | > 100 | > 100 | – | – | – | – | –
3 | O=C1CCC(=O)c2cc(Br)ccc2N1 | > 100 µM | > 100 µM | > 100 | > 100 | > 100 | > 100 µM | > 100 | > 100 | > 100 | > 100 µM | > 100 | > 100 | – | – | – | – | –
4 | Cc1ccc(NC(=O)SCCC(=O)O)cc1NC(=O)SCCC(=O)O | > 100 µM | > 100 µM | – | > 100 | > 100 | > 100 µM | > 100 | > 100 | > 100 | – | – | > 100 | – | – | – | – | –
5 | COc1cc2c(cc1OC)-c1c(cc(OC)c(OC)c1OC)C2=O | – | > 100 µM | > 100 | > 100 | > 100 | > 100 µM | > 100 | – | > 100 | > 100 µM | – | > 100 | – | – | – | – | –
6 | Oc1cccc(C2SCc3nc4ccccc4n32)c1 (stereo unspecified) | > 100 µM | > 100 µM | > 100 | – | > 100 | > 100 µM | > 100 | > 100 | > 100 | > 100 µM | – | > 100 | – | – | – | – | –
7 | O=C(O)/C(O)=C1/C=C(c2ccccc2)c2ccccc21 | 63.6 µM | 46.6 µM | 47.4 | 97.2 | 30.9 | 35.6 µM | 61.9 | > 100 | 79.8 | 30 µM | – | 86.8 | – | – | – | – | –
8 | O=C(Nc1cc(C(F)(F)F)ccc1Cl)C(=O)C(C(=O)c1ccc2ccccc2c1)C1OC(=O)c2ccccc21 (stereo unspecified) | > 52.5 µM | 33.7 µM | – | 39.1 | 20 | 8.11 µM | 21 | – | 40.3 | 32.9 µM | – | 31.7 | – | – | – | – | –
9 | CNC(=O)OCc1nc(S(C)=O)n(C)c1COC(=O)NC (stereo unspecified) | > 93.8 µM | > 100 µM | > 100 | > 100 | > 100 | > 100 µM | > 100 | > 92.1 | > 100 | > 65.9 µM | > 100 | > 100 | – | – | – | – | –
10 | CSc1s[s+]c(SC)c1[O-] | 53.6 µM | > 100 µM | > 100 | > 100 | 32.2 | 41.4 µM | 52.5 | > 100 | > 100 | 28.2 µM | > 100 | 74.1 | – | – | – | – | –
11 | N/C(=N\C(=S)N1CCCCC1)N1CCCCC1 | > 100 µM | > 100 µM | > 100 | > 100 | > 100 | > 100 µM | > 100 | > 100 | > 100 | > 100 µM | > 100 | > 100 | – | – | – | – | –
12 | CC(NC(=O)C(N)Cc1ccccc1)C(=O)NC(Cc1ccc(O)cc1)C(=O)NC(Cc1c[nH]c2ccccc12)C(=O)NC(CCCCN)C(=O)NC(C(=O)NC(C)C(=O)NC(Cc1ccc2ccccc2c1)C(N)=O)C(C)C (stereo unspecified) (H-FAYWKVA[2Nal]-NH2; configuration not given here) | > 12.5 µM and 39.1 µM | > 12.5 µM and 29.4 µM | 46.3 | 78 | > 12.5 | > 12.5 µM and 36.5 µM | > 100 | > 100 | – | > 12.5 µM and 75.7 µM | 54.9 | > 100 | 16 | 37.1 | 17.7 | > 100 | 26.8
13 | O=C1OC(=O)C2C3CCC(O3)C12 (stereo unspecified) | > 100 µM | > 100 µM | > 100 | – | – | > 100 µM | > 100 | > 100 | > 100 | > 100 µM | > 100 | > 100 | – | – | – | – | –
14 | C=C(CO)CC(O)c1ccccc1 (stereo unspecified) | – | > 100 µM | – | > 100 | > 100 | > 100 µM | > 100 | > 100 | > 100 | > 100 µM | > 100 | > 100 | – | – | – | – | –
15 | COC1OC(C)C(OC(=O)C(C)(C)C)C(C)(O)C1O (stereo unspecified) | > 100 µM | > 100 µM | > 100 | > 100 | > 100 | > 100 µM | > 100 | > 100 | > 100 | > 100 µM | > 100 | > 100 | – | – | – | – | –
16 | O=C(C#Cc1c[nH]c(=O)[nH]c1=O)c1ccccc1 | 32.3 µM | 7.8 µM | 29.2 | – | – | 6.05 µM | 15.9 | 38.5 | 26.7 | 21.8 µM | – | 53.7 | – | – | – | – | –
17 | CN(C)CC1(C)CC/C(=C\c2ccc3c(c2)OCO3)C1=O (stereo unspecified) | > 100 µM | > 100 µM | > 100 | > 100 | > 100 | > 100 µM | > 100 | > 100 | > 100 | > 100 µM | > 100 | > 100 | – | – | – | – | –
